Patent publication US20230120895A1, “PESTICIDALLY ACTIVE HETEROCYCLIC DERIVATIVES WITH SULFUR CONTAINING SUBSTITUENTS” (SYNGENTA CROP PROTECTION AG, priority 2019, published 2023)

Columns and labels:
Assay type in all cases: in vivo
Diabrotica balteata = experiment: Activity against Diabrotica balteata (corn root worm); details: 96 h, application rate 200 ppm, sprayed maize sprouts, L2 larvae, 4 days after infestation, read-out: effect in at least one of the two categories (mortality or growth inhibition)
Protocol: Maize sprouts placed onto an agar layer in 24-well microtiter plates were treated with aqueous test solutions prepared from 10′000 ppm DMSO stock solutions by spraying. After drying, the plates were infested with L2 larvae (6 to 10 per well). The samples were assessed for mortality and growth inhibition in comparison to untreated samples 4 days after infestation.

Chilo suppressalis = experiment: Activity against Chilo suppressalis (striped rice stemborer); details: 144 h, application rate 200 ppm, artificial diet, L2 larvae, 6 days after infestation, read-out: control (mortality, anti-feeding effect or growth inhibition)
Protocol: 24-well microtiter plates with artificial diet were treated with aqueous test solutions prepared from 10′000 ppm DMSO stock solutions by pipetting. After drying, the plates were infested with L2 larvae (6-8 per well). The samples were assessed for mortality, anti-feeding effect, and growth inhibition in comparison to untreated samples 6 days after infestation. Control of Chilo suppressalis by a test sample is given when at least one of the categories mortality, anti-feedant effect, and growth inhibition is higher than the untreated sample.

Spodoptera littoralis = experiment: Activity against Spodoptera littoralis (Egyptian cotton leaf worm); details: foliar, 72 h, application rate 200 ppm, sprayed cotton leaf discs, L1 larvae, 3 days after infestation, read-out: control (mortality, anti-feeding effect or growth inhibition)
Protocol: Cotton leaf discs were placed onto agar in 24-well microtiter plates and sprayed with aqueous test solutions prepared from 10′000 ppm DMSO stock solutions. After drying the leaf discs were infested with five L1 larvae. The samples were assessed for mortality, anti-feeding effect, and growth inhibition in comparison to untreated samples 3 days after infestation. Control of Spodoptera littoralis by a test sample is given when at least one of the categories mortality, anti-feedant effect, and growth inhibition is higher than the untreated sample.

Myzus persicae [1] = experiment: Activity against Myzus persicae (green peach aphid), feeding/contact activity; details: foliar, 144 h, application rate 200 ppm, sprayed sunflower leaf discs, mixed ages, 6 days after infestation
Protocol: Sunflower leaf discs were placed onto agar in a 24-well microtiter plate and sprayed with aqueous test solutions prepared from 10′000 ppm DMSO stock solutions. After drying, the leaf discs were infested with an aphid population of mixed ages. The samples were assessed for mortality 6 days after infestation.

Myzus persicae [2] = experiment: Activity against Myzus persicae (green peach aphid), systemic activity; details: 144 h, test rate 24 ppm, roots of pea seedlings in test solution, 6 days
Protocol: Roots of pea seedlings infested with an aphid population of mixed ages were placed directly into aqueous test solutions prepared from 10′000 DMSO stock solutions. The samples were assessed for mortality 6 days after placing seedlings into test solutions.

Plutella xylostella = experiment: Activity against Plutella xylostella (diamond back moth); details: 192 h, application rate 200 ppm, artificial diet, eggs, 8 days after infestation, read-out: effect in at least one of the two categories (mortality or growth inhibition)
Protocol: 24-well microtiter plates with artificial diet were treated with aqueous test solutions prepared from 10′000 ppm DMSO stock solutions by pipetting. After drying, Plutella eggs were pipetted through a plastic stencil onto a gel blotting paper and the plate was closed with it. The samples were assessed for mortality and growth inhibition in comparison to untreated samples 8 days after infestation. The following compounds gave an effect of at least 80% in at least one of the two categories (mortality or growth inhibition) at an application rate of 200 ppm: P2, P3, P4, P5, P6, P8, P13.

Euschistus heros = experiment: Activity against Euschistus heros (neotropical brown stink bug); details: 120 h, application rate 200 ppm, sprayed soybean leaves, N2 nymphs, 5 days after infestation, read-out: effect in at least one of the two categories (mortality or growth inhibition)
Protocol: Soybean leaves on agar in 24-well microtiter plates were sprayed with aqueous test solutions prepared from 10′000 ppm DMSO stock solutions. After drying the leaves were infested with N2 nymphs. The samples were assessed for mortality and growth inhibition in comparison to untreated samples 5 days after infestation.

[3] = test system: Carpocapsa (Cydia) pomonella; experiment: Activity against Carpocapsa (Cydia) pomonella (codling moth); details: 336 h, application rate 12.5 ppm, sprayed diet cubes, L1 larvae, 14 days after infestation
Protocol: Diet cubes coated with paraffin were sprayed with diluted test solutions in an application chamber. After drying off the treated cubes (10 replicates) were infested with 1 L1 larvae. Samples were incubated at 26-27° C. and checked 14 days after infestation for mortality and growth inhibition.

CCS(=O)(=O)c1cccnc1-c1cc2ccc(=O)n(CC(F)(F)C(F)(F)F)c2cn1 [P2, 6-(3-ethylsulfonyl-2-pyridyl)-1-(2,2,3,3,3-pentafluoropropyl)-1,7-naphthyridin-2-one]
≥ 80%: percent effect (mortality or growth inhibition) at 200 ppm (Diabrotica balteata) | percent control (mortality, anti-feedant effect or growth inhibition) at 200 ppm (Chilo suppressalis) | percent control (mortality, anti-feedant effect or growth inhibition) at 200 ppm (Spodoptera littoralis) | mortality at 200 ppm (Myzus persicae [1]) | mortality at 24 ppm (Myzus persicae [2]) | percent effect (mortality or growth inhibition) at 200 ppm (Plutella xylostella) | percent effect (mortality or growth inhibition) at 200 ppm (Euschistus heros)

CCS(=O)(=O)c1ccc(-n2cncn2)nc1-c1cc2ccc(=O)n(CC(F)(F)C(F)(F)F)c2cn1 [P4, 6-[3-ethylsulfonyl-6-(1,2,4-triazol-1-yl)-2-pyridyl]-1-(2,2,3,3,3-pentafluoropropyl)-1,7-naphthyridin-2-one]
≥ 80%: percent control (mortality, anti-feedant effect or growth inhibition) at 200 ppm (Chilo suppressalis) | mortality at 12.5 ppm [3] | percent control (mortality, anti-feedant effect or growth inhibition) at 200 ppm (Spodoptera littoralis) | percent effect (mortality or growth inhibition) at 200 ppm (Plutella xylostella)

CCS(=O)(=O)c1ccc(C2CC2)nc1-c1cc2ccc(=O)n(CC(F)(F)C(F)(F)F)c2cn1 [P5, 6-(6-cyclopropyl-3-ethylsulfonyl-2-pyridyl)-1-(2,2,3,3,3-pentafluoropropyl)-1,7-naphthyridin-2-one]
≥ 80%: percent effect (mortality or growth inhibition) at 200 ppm (Diabrotica balteata) | percent control (mortality, anti-feedant effect or growth inhibition) at 200 ppm (Chilo suppressalis) | percent control (mortality, anti-feedant effect or growth inhibition) at 200 ppm (Spodoptera littoralis) | mortality at 200 ppm (Myzus persicae [1]) | percent effect (mortality or growth inhibition) at 200 ppm (Plutella xylostella)

CCS(=O)(=O)c1cc(C(C)(C)C#N)cnc1-c1cc2ccc(=O)n(CC(F)(F)C(F)(F)F)c2cn1 [P6, 2-[5-ethylsulfonyl-6-[2-oxo-1-(2,2,3,3,3-pentafluoropropyl)-1,7-naphthyridin-6-yl]-3-pyridyl]-2-methyl-propanenitrile]
≥ 80%: percent effect (mortality or growth inhibition) at 200 ppm (Diabrotica balteata) | percent control (mortality, anti-feedant effect or growth inhibition) at 200 ppm (Chilo suppressalis) | mortality at 12.5 ppm [3] | percent control (mortality, anti-feedant effect or growth inhibition) at 200 ppm (Spodoptera littoralis) | percent effect (mortality or growth inhibition) at 200 ppm (Plutella xylostella) | percent effect (mortality or growth inhibition) at 200 ppm (Euschistus heros)

CCS(=O)(=O)c1cc(N(C)C(C)=O)cnc1-c1cc2ccc(=O)n(CC(F)(F)C(F)(F)F)c2cn1 [P7, N-[5-ethylsulfonyl-6-[2-oxo-1-(2,2,3,3,3-pentafluoropropyl)-1,7-naphthyridin-6-yl]-3-pyridyl]-N-methyl-acetamide]
≥ 80%: percent effect (mortality or growth inhibition) at 200 ppm (Diabrotica balteata) | percent control (mortality, anti-feedant effect or growth inhibition) at 200 ppm (Chilo suppressalis) | percent control (mortality, anti-feedant effect or growth inhibition) at 200 ppm (Spodoptera littoralis) | mortality at 200 ppm (Myzus persicae [1]) | mortality at 24 ppm (Myzus persicae [2])

CCS(=O)(=O)c1cc(-n2ccc(Cl)n2)cnc1-c1cc2ccc(=O)n(CC(F)(F)C(F)(F)F)c2cn1 [P8, 6-[5-(3-chloropyrazol-1-yl)-3-ethylsulfonyl-2-pyridyl]-1-(2,2,3,3,3-pentafluoropropyl)-1,7-naphthyridin-2-one]
≥ 80%: percent effect (mortality or growth inhibition) at 200 ppm (Diabrotica balteata) | percent control (mortality, anti-feedant effect or growth inhibition) at 200 ppm (Chilo suppressalis) | percent control (mortality, anti-feedant effect or growth inhibition) at 200 ppm (Spodoptera littoralis) | percent effect (mortality or growth inhibition) at 200 ppm (Plutella xylostella) | percent effect (mortality or growth inhibition) at 200 ppm (Euschistus heros)

CCS(=O)(=O)c1cc(Oc2ccccn2)cnc1-c1cc2ccc(=O)n(CC(F)(F)C(F)(F)F)c2cn1 [P9, 6-[3-ethylsulfonyl-5-(2-pyridyloxy)-2-pyridyl]-1-(2,2,3,3,3-pentafluoropropyl)-1,7-naphthyridin-2-one]
≥ 80%: percent effect (mortality or growth inhibition) at 200 ppm (Diabrotica balteata) | percent control (mortality, anti-feedant effect or growth inhibition) at 200 ppm (Chilo suppressalis) | percent control (mortality, anti-feedant effect or growth inhibition) at 200 ppm (Spodoptera littoralis) | percent effect (mortality or growth inhibition) at 200 ppm (Euschistus heros)

CCS(=O)(=O)c1cc(C2(C#N)CC2)cnc1-c1cc2ccc(=O)n(CC(F)(F)F)c2cn1 [P10, 1-[5-ethylsulfonyl-6-[2-oxo-1-(2,2,2-trifluoroethyl)-1,7-naphthyridin-6-yl]-3-pyridyl]cyclopropanecarbonitrile]
≥ 80%: percent effect (mortality or growth inhibition) at 200 ppm (Diabrotica balteata) | percent control (mortality, anti-feedant effect or growth inhibition) at 200 ppm (Chilo suppressalis) | percent control (mortality, anti-feedant effect or growth inhibition) at 200 ppm (Spodoptera littoralis) | mortality at 200 ppm (Myzus persicae [1]) | percent effect (mortality or growth inhibition) at 200 ppm (Euschistus heros)

CCS(=O)(=O)c1ccc(-n2nccn2)nc1-c1cc2ccc(=O)n(CC(F)(F)C(F)(F)F)c2cn1 [P11, 6-[3-ethylsulfonyl-6-(triazol-2-yl)-2-pyridyl]-1-(2,2,3,3,3-pentafluoropropyl)-1,7-naphthyridin-2-one]
≥ 80%: percent effect (mortality or growth inhibition) at 200 ppm (Diabrotica balteata) | percent control (mortality, anti-feedant effect or growth inhibition) at 200 ppm (Chilo suppressalis) | percent control (mortality, anti-feedant effect or growth inhibition) at 200 ppm (Spodoptera littoralis)

CCS(=O)(=O)c1ccc(-n2ccnn2)nc1-c1cc2ccc(=O)n(CC(F)(F)C(F)(F)F)c2cn1 [P12, 6-[3-ethylsulfonyl-6-(triazol-1-yl)-2-pyridyl]-1-(2,2,3,3,3-pentafluoropropyl)-1,7-naphthyridin-2-one]
≥ 80%: percent effect (mortality or growth inhibition) at 200 ppm (Diabrotica balteata) | percent control (mortality, anti-feedant effect or growth inhibition) at 200 ppm (Chilo suppressalis) | percent control (mortality, anti-feedant effect or growth inhibition) at 200 ppm (Spodoptera littoralis)

CCSc1cc(C2(C#N)CC2)cnc1-c1cc2ccc(=O)n(CC(F)(F)C(F)(F)F)c2cn1 [P13, 1-[5-ethylsulfanyl-6-[2-oxo-1-(2,2,3,3,3-pentafluoropropyl)-1,7-naphthyridin-6-yl]-3-pyridyl]cyclopropanecarbonitrile]
≥ 80%: percent effect (mortality or growth inhibition) at 200 ppm (Diabrotica balteata) | percent control (mortality, anti-feedant effect or growth inhibition) at 200 ppm (Chilo suppressalis) | percent control (mortality, anti-feedant effect or growth inhibition) at 200 ppm (Spodoptera littoralis) | percent effect (mortality or growth inhibition) at 200 ppm (Plutella xylostella)

CCSc1cc(-n2ccc(Cl)n2)cnc1-c1cc2ccc(=O)n(CC(F)(F)C(F)(F)F)c2cn1 [P14, 6-[5-(3-chloropyrazol-1-yl)-3-ethylsulfanyl-2-pyridyl]-1-(2,2,3,3,3-pentafluoropropyl)-1,7-naphthyridin-2-one]
≥ 80%: percent control (mortality, anti-feedant effect or growth inhibition) at 200 ppm (Chilo suppressalis)

CCSc1cc(C2(C#N)CC2)cnc1-c1cc2ccc(=O)n(CC(F)(F)F)c2cn1 [P15, 1-[5-ethylsulfanyl-6-[2-oxo-1-(2,2,2-trifluoroethyl)-1,7-naphthyridin-6-yl]-3-pyridyl]cyclopropanecarbonitrile]
≥ 80%: percent effect (mortality or growth inhibition) at 200 ppm (Diabrotica balteata) | percent control (mortality, anti-feedant effect or growth inhibition) at 200 ppm (Chilo suppressalis) | percent control (mortality, anti-feedant effect or growth inhibition) at 200 ppm (Spodoptera littoralis)
